This is an account of results in patent US20230295096A1, “PYRAZOLE CARBOXAMIDE COMPOUNDS FOR TREATMENT OF HBV” (ASSEMBLY BIOSCIENCES, INC., priority 2020, published 2023).

The structures appear in SMILES notation.

The test system of the first assay is HBV. The assay is described as follows: Viral load production from HepAD38 cells, qPCR of the HBV core sequence in supernatant. The format is cell-based. The conditions noted are these: HepAD38 cells, 5 days, HBV DNA in supernatant by qPCR; Table 1 ranges; read-out: Activity (viral load lowering EC50). The gist of the method:
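EC50 and CC50 come from four-parameter logistic fits of supernatant HBV core DNA (TaqMan qPCR, DNA standards, compared with DMSO wells) and of CellTiter-Glo luminescence.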
(Real-time PCR tracks product formation cycle by cycle.)
One may read the EC50 as the concentration that produces a half-maximal response. `Cn1nc(C2CC3CC(O)(CNc4ncc(F)cn4)CC3C2)c(C(=O)Nc2ccc(F)c(Cl)c2)c1N` (stereo not shown) [Example 213]: the EC50 lay within 10 to 50 nM.
The same measure, in the same setting: in the case of `Cn1nc(C2CC3CC(CNC(=O)C(C)(C)O)CC3C2)c(C(=O)Nc2ccc(F)c(Cl)c2)c1N` (single isomer, unassigned) [Example 44, 5-Amino-N-(3-chloro-4-fluorophenyl)-3-(5-((2-hydroxy-2-methylpropanamido)methyl)octahydropentalen-2-yl)-1-methyl-1H-pyrazole-4-carboxamide] it was below 10 nM.

Still in this assay, the particulars now being: HepAD38 cells, 5 days, HBV DNA in supernatant by qPCR; Table 2 ranges; read-out: VL HepAD38 EC50 range.
For `Cn1nc(C2CC3CC(c4ccccc4)C(O)C3C2)c(C(=O)Nc2ccc(F)c(Cl)c2)c1N` (single isomer, unassigned) [Example 143, 5-Amino-N-(3-chloro-4-fluorophenyl)-3-(4-hydroxy-5-phenyloctahydropentalen-2-yl)-1-methyl-1H-pyrazole-4-carboxamide], the EC50 is below 100 nM.

The assay is the same for the next values; noted with them: Hepatitis B virus, HePAD38, 120 h, HepAD38 cells, 5 days, HBV DNA in supernatant by qPCR; Table 1 ranges; read-out: Activity (viral load lowering EC50).
As to `Cn1nc(Br)c(C2(O)CC3CC(c4nn(C)c(N)c4C(=O)Nc4ccc(F)c(Cl)c4)CC3C2)n1` (stereo not shown) [Example 194], the EC50 was below 10 nM.
Same read-out and setting: in the case of `Cn1nc(C2CC3CC(O)(c4cc([N+](=O)[O-])nn4C4CC4)CC3C2)c(C(=O)Nc2ccc(F)c(Cl)c2)c1N` (stereo not shown) [Example 218] it was below 10 nM.
On the same count and under the same terms, in the case of `Cn1nc(C2CC3CN(c4ncc(C(F)(F)F)cn4)CC3C2)c(C(=O)Nc2ccc(F)c(Cl)c2)c1N` (stereo not shown) [Example 133, 5-Amino-N-(3-chloro-4-fluorophenyl)-1-methyl-3-(2-(5-(trifluoromethyl)pyrimidin-2-yl)octahydrocyclopenta[c]pyrrol-5-yl)-1H-pyrazole-4-carboxamide] it was 50 to 500 nM.
Still for that read-out and setting: in the case of `Cn1cc(C2(O)CC3CC(c4nn(C)c(N)c4C(=O)Nc4ccc(F)c(Cl)c4)CC3C2)cn1` (stereo not shown) [Example 146] it was below 10 nM; in that of `Cn1nc(C2CC3CC(CNC(=O)C4CCOCC4)CC3C2)c(C(=O)Nc2ccc(F)c(Cl)c2)c1N` (stereo not shown) [Example 50, 5-Amino-N-(3-chloro-4-fluorophenyl)-1-methyl-3-(5-((tetrahydro-2H-pyran-4-carboxamido)methyl)octahydropentalen-2-yl)-1H-pyrazole-4-carboxamide], below 10 nM.
On to `Cn1nc(C2CC3CC(O)(c4cn(COP(=O)(O)O)nc4C(F)(F)F)CC3C2)c(C(=O)Nc2ccc(F)c(Cl)c2)c1N` (stereo not shown) [Example 157, sodium sodium (4-(5-(5-amino-4-((3-chloro-4-fluorophenyl)carbamoyl)-1-methyl-1H-pyrazol-3-yl)-2-hydroxyoctahydropentalen-2-yl)-3-(trifluoromethyl)-1H-pyrazol-1-yl)methyl phosphate], for which the EC50 was below 10 nM.
As for `CC(=O)NCC1CC2CC(c3nn(C)c(N)c3C(=O)Nc3ccc(F)c(Cl)c3)CC2C1` (stereo not shown) [Example 54, 3-(5-(Acetamidomethyl)octahydropentalen-2-yl)-5-amino-N-(3-chloro-4-fluorophenyl)-1-methyl-1H-pyrazole-4-carboxamide], the EC50 was below 10 nM.
Same read-out and setting: as for `Cn1nc(C2CC3CC(O)(c4ccccc4)CC3C2)c(C(=O)Nc2ccc(F)c(Cl)c2)c1N` (stereo not shown) [Example 1, 5-Amino-N-(3-chloro-4-fluorophenyl)-3-(5-hydroxy-5-phenyl-octahydropentalen-2-yl)-1-methyl-1H-pyrazole-4-carboxamide], the figure is below 10 nM.
Same read-out and setting: in the case of `Cn1nc(C2CC3CN(C(=O)c4cnc(C(F)(F)F)s4)CC3C2)c(C(=O)Nc2ccc(F)c(Cl)c2)c1N` (stereo not shown) [Example 120, 5-Amino-N-(3-chloro-4-fluorophenyl)-1-methyl-3-(2-(2-(trifluoromethyl)thiazole-5-carbonyl)octahydrocyclopenta[c]pyrrol-5-yl)-1H-pyrazole-4-carboxamide] it was 50 to 500 nM; in that of `Cn1nc(C2CC3CC(CNC(=O)C(C)(C)C4CCNCC4)CC3C2)c(C(=O)Nc2ccc(F)c(Cl)c2)c1N` (stereo not shown) [Example 79, 5-Amino-N-(3-chloro-4-fluorophenyl)-1-methyl-3-(5-((2-methyl-2-(piperidin-4-yl)propanamido)methyl)octahydropentalen-2-yl)-1H-pyrazole-4-carboxamide], 50 to 500 nM; in that of `Cn1nc(C2CC3CC(CNS(=O)(=O)C4CC4)CC3C2)c(C(=O)Nc2ccc(F)c(Cl)c2)c1N` (stereo not shown) [Example 94, 5-Amino-N-(3-chloro-4-fluorophenyl)-3-(5-(cyclopropanesulfonamidomethyl)octahydropentalen-2-yl)-1-methyl-1H-pyrazole-4-carboxamide], below 10 nM.
Still for that read-out and setting: in the case of `Cn1nc(C2CC3CC(CNS(=O)(=O)c4ccc(Cl)nc4)CC3C2)c(C(=O)Nc2ccc(F)c(Cl)c2)c1N` (stereo not shown) [Example 86, 5-Amino-N-(3-chloro-4-fluorophenyl)-3-(5-(((6-chloropyridine)-3-sulfonamido)methyl)octahydropentalen-2-yl)-1-methyl-1H-pyrazole-4-carboxamide] it was below 10 nM.
As for `Cn1nc(C2CC3CC(CNC(=O)C4CCNCC4)CC3C2)c(C(=O)Nc2ccc(F)c(Cl)c2)c1N` (stereo not shown) [Example 75, N-((5-(5-Amino-4-((3-chloro-4-fluorophenyl)carbamoyl)-1-methyl-1H-pyrazol-3-yl)octahydropentalen-2-yl)methyl)piperidine-4-carboxamide], the EC50 lay within 10 to 50 nM.
On the same count and under the same terms, as for `Cn1nc(C2CC3C=C(c4ccn[nH]4)CC3C2)c(C(=O)Nc2ccc(F)c(Cl)c2)c1N` (stereo not shown) [Example 197], the figure is below 10 nM; as for `Cn1nc(C2CC3CC(O)(Cc4nccs4)CC3C2)c(C(=O)Nc2ccc(F)c(Cl)c2)c1N` (stereo not shown) [Example 160], below 10 nM.
On the same count and under the same terms, in the case of `Cc1nnc(C2(O)CC3CC(c4nn(C)c(N)c4C(=O)Nc4ccc(F)c(Cl)c4)CC3C2)o1` (stereo not shown) [Example 176] it was 10 to 50 nM.
Still for that read-out and setting: in the case of `Cn1cnc(C(=O)NCC2CC3CC(c4nn(C)c(N)c4C(=O)Nc4ccc(F)c(Cl)c4)CC3C2)c1` (stereo not shown) [Example 38, 5-Amino-N-(3-chloro-4-fluorophenyl)-1-methyl-3-(5-((1-methyl-1H-imidazole-4-carboxamido)methyl)octahydropentalen-2-yl)-1H-pyrazole-4-carboxamide] it was below 10 nM; in that of `Cc1noc(C)c1C(=O)NCC1CC2CC(c3nn(C)c(N)c3C(=O)Nc3ccc(F)c(Cl)c3)CC2C1` (stereo not shown) [Example 59, N-((5-(5-Amino-4-((3-chloro-4-fluorophenyl)carbamoyl)-1-methyl-1H-pyrazol-3-yl)octahydropentalen-2-yl)methyl)-3,5-dimethylisoxazole-4-carboxamide], below 10 nM.
As to `Cn1nc(C2CC3CC(O)(C(F)(F)F)CC3C2)c(C(=O)Nc2ccc(F)c(Cl)c2)c1N` (stereo not shown) [Example 31, 5-Amino-N-(3-chloro-4-fluorophenyl)-3-(5-hydroxy-5-(trifluoromethyl)octahydropentalen-2-yl)-1-methyl-1H-pyrazole-4-carboxamide], the EC50 fell in the range of 10 to 50 nM.
On the same count and under the same terms, as for `Cn1nc(C2CC3CC(O)(C(F)(F)S(=O)(=O)c4ccc(Cl)cc4)CC3C2)c(C(=O)Nc2ccc(F)c(Cl)c2)c1N` (stereo not shown) [Example 34, 5-Amino-N-(3-chloro-4-fluorophenyl)-3-(5-(((4-chlorophenyl)sulfonyl)difluoromethyl)-5-hydroxyoctahydropentalen-2-yl)-1-methyl-1H-pyrazole-4-carboxamide], the figure is 10 to 50 nM; as for `CC(C)n1nccc1C1(O)CC2CC(c3nn(C)c(N)c3C(=O)Nc3ccc(F)c(Cl)c3)CC2C1` (stereo not shown) [Example 200], below 10 nM.
The same measure, in the same setting: in the case of `Cn1nc(C2CC3CC(O)(c4cccnn4)CC3C2)c(C(=O)Nc2ccc(F)c(Cl)c2)c1N` (stereo not shown) [Example 190] it was below 10 nM.
Same read-out and setting: as for `Cn1nc(N)cc1C1(O)CC2CC(c3nn(C)c(N)c3C(=O)Nc3ccc(F)c(Cl)c3)CC2C1` [Example 155, 5-amino-3-((2 s,3aR,5r,6aS)-5-(3-amino-1-methyl-1H-pyrazol-5-yl)-5-hydroxyoctahydropentalen-2-yl)-N-(3-chloro-4-fluorophenyl)-1-methyl-1H-pyrazole-4-carboxamide], the figure is below 10 nM.
Consider `Cn1nc(C2CC3CC(O)(c4ccc(F)cc4)CC3C2)c(C(=O)Nc2ccc(F)c(Cl)c2)c1N` (stereo not shown) [Example 4, 5-Amino-N-(3-chloro-4-fluorophenyl)-3-(5-(4-fluorophenyl)-5-hydroxyoctahydropentalen-2-yl)-1-methyl-1H-pyrazole-4-carboxamide], for which the EC50 lay within 10 to 50 nM.
On the same count and under the same terms, as for `Cc1ncc(C2(O)CC3CC(c4nn(C)c(N)c4C(=O)Nc4ccc(F)c(Cl)c4)CC3C2)s1` (stereo not shown) [Example 161], the figure is below 10 nM.
The same measure, in the same setting: in the case of `Cn1cc(C(F)(F)F)c(C2(O)CC3CC(c4nn(C)c(N)c4C(=O)Nc4ccc(F)c(Cl)c4)CC3C2)n1` (stereo not shown) [Example 219] it was below 10 nM.
The same measure, in the same setting: in the case of `Cn1nc(C2CC3CC(O)(c4cn[nH]n4)CC3C2)c(C(=O)Nc2ccc(F)c(Cl)c2)c1N` (stereo not shown) [Example 173] it was 10 to 50 nM; in that of `Cn1nc(C2CC3CC(O)(c4cc(F)cc(F)c4)CC3C2)c(C(=O)Nc2ccc(F)c(Cl)c2)c1N` (stereo not shown) [Example 11, 5-Amino-N-(3-chloro-4-fluorophenyl)-3-(5-(3,5-difluorophenyl)-5-hydroxyoctahydropentalen-2-yl)-1-methyl-1H-pyrazole-4-carboxamide], 10 to 50 nM; in that of `Cn1nc(C2CC3CN(c4ccc(C(F)(F)F)nn4)CC3C2)c(C(=O)Nc2ccc(F)c(Cl)c2)c1N` (stereo not shown) [Example 132, 5-Amino-N-(3-chloro-4-fluorophenyl)-1-methyl-3-(2-(6-(trifluoromethyl)pyridazin-3-yl)octahydrocyclopenta[c]pyrrol-5-yl)-1H-pyrazole-4-carboxamide], 10 to 50 nM.
In the case of `Cn1nc(C2CC3CC(O)(c4cnccn4)CC3C2)c(C(=O)Nc2ccc(F)c(Cl)c2)c1N` (stereo not shown) [Example 191], the EC50 was below 10 nM.
Consider `Cc1cnc(C2(O)CC3CC(c4nn(C)c(N)c4C(=O)Nc4ccc(F)c(Cl)c4)CC3C2)o1` (stereo not shown) [Example 184], for which the EC50 was below 10 nM.
